According to ChEMBL document CHEMBL6134807, “A review-plant medicine and its extraction components inhibit influenza virus” (Bioorg Med Chem Lett, 2025):

The compounds below were run on Influenza B virus (assay: Antiviral activity against Influenza virus […] B/Panama/45/1990 infected in MDCK cells at 0.001 MOI assessed as inhibition of virus cytopathic effect measured after 48 hrs by crystal violet staining based assay). Conditions: B/Panama/45/1990, MDCK.
Format: functional, organism-based

Row | SMILES | EC50 [µM]
1 | O=C(O[C@@H]1Cc2c(O)cc(O)cc2O[C@@H]1c1ccc(O)c(O)c1)c1cc(O)c(O)c(O)c1 [EPICATECHIN GALLATE] | 22
2 | O=C(O[C@@H]1Cc2c(O)cc(O)cc2O[C@@H]1c1cc(O)c(O)c(O)c1)c1cc(O)c(O)c(O)c1 [EPIGALOCATECHIN GALLATE] | 5.7
3 | COc1cc(/C=C/C(=O)CC(=O)/C=C/c2ccc(O)c(OC)c2)ccc1O [CURCUMIN] | 0.47
